Source: paper PMC6222660, “Antiviral 4-Hydroxypleurogrisein and Antimicrobial Pleurotin Derivatives from Cultures of the Nematophagous Basidiomycete Hohenbuehelia grisea” (Molecules : A Journal of Synthetic Chemistry and Natural …, 2018)
Values after ≈ are worked out from the molar mass of the structure shown. Where two headings read alike, the source gives them in different places.

Assays:
Type in all cases: cell-based
Pichia anomala DSM6766 = assay: MIC serial dilution assay; parameters: key: -: no inhibition observed under test conditions; conditions: highest concentration 67 or 100 µg/mL
Excerpt: (§1) The minimum inhibitory concentration (MIC) for each compound was ascertained in a serial dilution assay in 96-well microtiter plates, as previously published by Kuhnert et al., using YM media for yeasts and filamentous fungi and BD^TM Difco™ Mueller Hinton Broth for bacteria.

Candida albicans DSM1665 = assay: MIC serial dilution assay; parameters: key: -: no inhibition observed under test conditions; conditions: highest concentration 67 or 100 µg/mL
Excerpt: as §1

[1] = system: Rhodotorula glutinis DSM10134; assay: MIC serial dilution assay; parameters: key: -: no inhibition observed under test conditions; conditions: highest concentration 67 or 100 µg/mL
Excerpt: as §1

Bacillus subtilis DSM10 = assay: MIC serial dilution assay; parameters: key: -: no inhibition observed under test conditions; conditions: highest concentration 67 or 100 µg/mL
Excerpt: as §1

Mucor hiemalis DSM2656 = assay: MIC serial dilution assay; parameters: key: -: no inhibition observed under test conditions; conditions: highest concentration 67 or 100 µg/mL
Excerpt: as §1

[2] = system: Staphylococcus aureus DSM346; assay: MIC serial dilution assay; parameters: key: -: no inhibition observed under test conditions; conditions: highest concentration 67 or 100 µg/mL
Excerpt: as §1

[3] = system: Micrococcus luteus DSM1790; assay: MIC serial dilution assay; parameters: key: -: no inhibition observed under test conditions; conditions: highest concentration 67 or 100 µg/mL
Excerpt: as §1

Candida tenuis MUCL29892 = assay: MIC serial dilution assay; parameters: key: -: no inhibition observed under test conditions; conditions: highest concentration 67 or 100 µg/mL
Excerpt: as §1

Mucor plumbeus MUCL49355 = assay: MIC serial dilution assay; parameters: key: -: no inhibition observed under test conditions; conditions: highest concentration 67 or 100 µg/mL
Excerpt: as §1

[4] = system: mouse fibroblast cell line L929; assay: In vitro cytotoxicity assay; conditions: 120 h, 6 × 10^3 cells/well, treated over five days
Experimental: (§2) In vitro cytotoxicity assay was performed as described by Richter et al. against the mouse fibroblast cell line L929 and the cervix carcinoma cell line KB3.1.

[5] = system: cervix carcinoma cell line KB3.1; assay: In vitro cytotoxicity assay; conditions: Homo sapiens, KB 3-1, 120 h, 6 × 10^3 cells/well, treated over five days
Experimental: as §2

hepatitis C virus (HCV) = assay: Inhibitory effects on HCV infectivity (Renilla luciferase reporter virus in Huh-7.5 cells); conditions: for activity in the HCV assay in vitro: Huh-7.5 host cells
Experimental: (§3) Figure 4 Antiviral activity of 4-hydroxypleurogrisin (11). NC-Negative control, EGCG-Positive control. HCV assay was performed in triplicates and is presented as the mean ± standard deviation. The asterisk indicates statistically significant differences (* p ≤ 0.05, ** p ≤ 0.01, *** p ≤ 0.001). Huh-7.5 cells were inoculated with RLuc-Jc1 reporter viruses in the presence of 4-hydroxypleurogrisein. The inoculum was removed 4 h later and monolayers were washed three times with PBS and overlaid with fresh medium containing no inhibitors. Infected cells were lysed three days later, and reporter virus infection was determined by renilla luciferase activity (top). The cell viability was measured by determination of firefly luciferase (bottom), which is stably expressed in the target cells.
This assay was carried out as described previously by Mulwa et al.. Huh7.5 cells stably expressing Firefly luciferase (Huh7.5 Fluc) were cultured in Dulbecco’s modified minimum essential medium (DMEM, Life Technologies, Darmstadt, Germany) containing 2 mM L glutamine, 1 × minimum essential medium nonessential amino acids (MEM NEAA, Life Technologies), 100 μg/mL streptomycin, 100 IU/mL penicillin (Life Technologies), 5 μg/mL blasticidin and 10% fetal bovine serum. Cells were maintained in a 37 °C environment with 5% CO2 supply. Cells were infected with Jc1-derived Renilla reporter viruses in the presence or absence of compounds as described previously. Infected cells were lysed and then frozen at −80 °C for 1 h following measurements of Renilla and Firefly luciferase activities on a Berthold Technologies Centro XS3 Microplate Luminometer (Bad Wildbad, Germany) as indicators of viral genome replication and cell viability, respectively.

Huh7.5 Fluc cells = assay: Cell viability in HCV assay (firefly luciferase); conditions: at 20 ng/µL
Experimental: as §3
This assay was carried out as described previously by Mulwa et al.. Huh7.5 cells stably expressing Firefly luciferase (Huh7.5 Fluc) were cultured in Dulbecco’s modified minimum essential medium (DMEM, Life Technologies, Darmstadt, Germany) containing 2 mM L glutamine, 1 × minimum essential medium nonessential amino acids (MEM NEAA, Life Technologies), 100 μg/mL streptomycin, 100 IU/mL penicillin (Life Technologies), 5 μg/mL blasticidin and 10% fetal bovine serum. Cells were maintained in a 37 °C environment with 5% CO2 supply. […]

[6] = Hansenula anomala, read-out: MIC
[7] = Yamadazyma tenuis, read-out: MIC

Row | Compound | MIC (Bacillus subtilis DSM10; read-out: MIC) | MIC ([2]; read-out: MIC) | MIC (Candida tenuis MUCL29892; [7]) | IC50 [4] | IC50 [5] | MIC (Candida albicans DSM1665) | MIC (Mucor plumbeus MUCL49355) | MIC [3] | MIC (Pichia anomala DSM6766) | MIC (Mucor hiemalis DSM2656) | MIC [2] | MIC [1] | MIC (Candida tenuis MUCL29892) | also measured
1 | C[C@@H]1CO[C@@H]2C3=C(C(=O)C=CC3=O)[C@H]3OC(=O)[C@@H]4CC[C@H]5[C@@H]1CC[C@@]25[C@@H]34 [Compound 1, pleurotin] | 50 µg/mL (≈ 141 µM) | 33.3 µg/mL (≈ 94 µM) | 25 µg/mL (≈ 70.5 µM) | 7.5 µg/mL (≈ 21.2 µM) | 8.5 µg/mL (≈ 24 µM) |  |  |  |  |  |  |  |  | MIC (Pichia anomala DSM6766; [6]): 66.7 µg/mL (≈ 188 µM); MIC (Candida albicans DSM1665; read-out: MIC): 33.3 µg/mL (≈ 94 µM); MIC ([1]; read-out: MIC): 16.7 µg/mL (≈ 47.1 µM); MIC (Mucor hiemalis DSM2656; read-out: MIC): 8.3 µg/mL (≈ 23.4 µM); MIC ([3]; read-out: MIC): 66.7 µg/mL (≈ 188 µM); MIC (Mucor plumbeus MUCL49355; read-out: MIC): 100 µg/mL (≈ 282 µM)
2 | C[C@@H]1CO[C@@H]2c3c(O)ccc(O)c3[C@H]3OC(=O)[C@@H]4CC[C@H]5[C@@H]1CC[C@@]25[C@@H]34 [Compound 2, leucopleurotin, reference compound] | 25 µg/mL (≈ 70.1 µM) | 33.3 µg/mL (≈ 93.4 µM) | 100 µg/mL (≈ 281 µM) | 2.2 µg/mL (≈ 6.17 µM) | 2.8 µg/mL (≈ 7.86 µM) | - | - |  |  |  |  |  |  | MIC (Pichia anomala DSM6766; [6]): 66.7 µg/mL (≈ 187 µM); MIC ([1]; read-out: MIC): 33.3 µg/mL (≈ 93.4 µM); MIC (Mucor hiemalis DSM2656; read-out: MIC): 33.3 µg/mL (≈ 93.4 µM); MIC ([3]; read-out: MIC): 66.7 µg/mL (≈ 187 µM)
3 | CC1COC2C3=C(CC4C(C(=O)O)CCC5C1CCC245)C(=O)C=CC3=O (stereo not drawn) [Compound 3, dihydropleurotinic acid, reference compound] | 100 µg/mL (≈ 281 µM) | 66.7 µg/mL (≈ 187 µM) | 100 µg/mL (≈ 281 µM) | 18 µg/mL (≈ 50.5 µM) | 18 µg/mL (≈ 50.5 µM) | - |  | - |  |  |  |  |  | MIC (Pichia anomala DSM6766; [6]): 66.7 µg/mL (≈ 187 µM); MIC ([1]; read-out: MIC): 33.3 µg/mL (≈ 93.4 µM); MIC (Mucor hiemalis DSM2656; read-out: MIC): 16.7 µg/mL (≈ 46.9 µM); MIC (Mucor plumbeus MUCL49355; read-out: MIC): 100 µg/mL (≈ 281 µM)
4 | CC1COC2C3=C(CC4C(C(=O)O)CCC5C1(O)CCC245)C(=O)C=CC3=O (stereo not drawn) [Compound 5, 3-Hydroxy-dihydropleurotinic acid] | 100 µg/mL (≈ 269 µM) |  | 100 µg/mL (≈ 269 µM) | 22 µg/mL (≈ 59.1 µM) | 22 µg/mL (≈ 59.1 µM) | - | - | - | - | - | - |  |  | MIC ([1]; read-out: MIC): 33.3 µg/mL (≈ 89.4 µM); activity in the HCV assay in vitro (hepatitis C virus (HCV)): devoid of any activity
5 | C[C@@H]1CO[C@@H]2C3=C(C(=O)C=CC3=O)[C@@H](O)[C@H]3[C@H](C(=O)O)CC[C@H]4[C@@H]1CC[C@@]324 [Compound 6, 14-Hydroxy-dihydropleurotinic acid] |  |  |  | 23 µg/mL (≈ 61.8 µM) | 22 µg/mL (≈ 59.1 µM) | - | - | - | - | - | - | - | - | MIC (Bacillus subtilis DSM10): -
6 | C[C@@H]1CO[C@@H]2c3c(O)ccc(O)c3C[C@H]3[C@H](C(=O)O)CC[C@H]4[C@@H]1CC[C@@]243 [Compound 7, Leucopleurotinic acid] |  |  |  | 17 µg/mL (≈ 47.4 µM) | 20 µg/mL (≈ 55.8 µM) | - | - | - | - | - | - | - | - | MIC (Bacillus subtilis DSM10): -
7 | C[C@@H]1CO[C@@H]2c3c(O)ccc(O)c3C(=O)[C@H]3[C@H](C(=O)O)CC[C@H]4[C@@H]1CC[C@@]243 [Compound 8, 14-oxo-leucopleuotinic acid] | 50 µg/mL (≈ 134 µM) |  |  | 22 µg/mL (≈ 59.1 µM) | 22 µg/mL (≈ 59.1 µM) | - | - | - | - | - | - | - | - | 
8 | C=C1CO[C@@H]2c3c(O)ccc(O)c3[C@H]3OC(=O)[C@@H]4CC[C@H]5[C@@H]1CC[C@@]25[C@@H]34 [Compound 9, Nematoctone] |  |  | 25 µg/mL (≈ 70.5 µM) | 21 µg/mL (≈ 59.3 µM) | 18 µg/mL (≈ 50.8 µM) | - | - | - | - | - | - | - |  | MIC (Bacillus subtilis DSM10): -
9 | C[C@H](CO)[C@H]1CC[C@]23C(=O)c4c(O)ccc(O)c4C(=O)[C@H]2[C@H](C(=O)O)CC[C@@H]13 [Compound 10, Di-oxo-leucopleurotinic acid] | 100 µg/mL (≈ 257 µM) |  |  | 22 µg/mL (≈ 56.6 µM) | 22 µg/mL (≈ 56.6 µM) | - | - | - | - | - | - | - | - | 
10 | CC(C)(O)C1CCC23CC4=C(CC2C(O)(CO)CCC13)C(=O)C=CC4=O (stereo not drawn) [Compound 11, 4-Hydroxypleurogrisein] | 50 µg/mL (≈ 139 µM) | 33.3 µg/mL (≈ 92.4 µM) |  | 6.9 µg/mL (≈ 19.1 µM) | 7.5 µg/mL (≈ 20.8 µM) | - | - |  | - | - |  | - | - | MIC ([3]; read-out: MIC): 66.7 µg/mL (≈ 185 µM); cytotoxic effects (cell viability, firefly luciferase) (Huh7.5 Fluc cells): cytotoxic effects were noted; IC50 (hepatitis C virus (HCV); Hepatitis C virus, Huh7.5, read-out: IC50 of HCV infectivity): ~5 µg/mL (≈ 13.9 µM); activity in the HCV assay in vitro (hepatitis C virus (HCV)): significant activities in vitro; inhibitory effect on HCV infectivity (hepatitis C virus (HCV); at 10 ng/µL): strong inhibitory effect
11 | C/C(=C\c1csc(C)n1)[C@@H]1C[C@@H]2O[C@]2(C)CCC[C@H](C)[C@H](O)[C@@H](C)C(=O)C(C)(C)[C@@H](O)CC(=O)O1 [Epothilone B, reference compound] |  |  |  | 0.00062 µg/mL (≈ 0.00122 µM) | 3e-05 µg/mL (≈ 5.91e-05 µM) |  |  |  |  |  |  |  |  | 
12 | C[C@@H]1[C@H](O)[C@@H](C)/C=C/C=C/CC/C=C/C=C/C=C/C=C/C(O[C@H]2O[C@H](C)[C@@H](O)[C@H](N)[C@@H]2O)CC2O[C@](O)(CC(O)C(O)CCC(O)CC(O)CC(O)CC(=O)O[C@H]1C)CC(O)C2C(=O)O (stereo partly drawn) [Nystatin, reference compound] |  |  |  |  |  | Nystatin (16.7) µg/mL | Nystatin (12.5) µg/mL |  | Nystatin (16.7) µg/mL | Nystatin (16.7) µg/mL |  | Nystatin (16.7) µg/mL | Nystatin (12.5) µg/mL | 
13 | CN(C)[C@@H]1C(O)=C(C(N)=O)C(=O)[C@@]2(O)C(O)=C3C(=O)c4c(O)cccc4[C@@](C)(O)[C@H]3[C@H](O)[C@@H]12 [Oxytetracycline, reference compound] |  | 6.7 µg/mL (≈ 14.6 µM) |  |  |  |  |  |  |  |  |  |  |  | MIC ([3]; read-out: MIC): 0.4 µg/mL (≈ 0.869 µM)
14 | Penicillin [reference compound] |  |  |  |  |  |  |  |  |  |  |  |  |  | MIC (Bacillus subtilis DSM10): Penicillin (6.3) µg/mL
